Laboratory results reported in PMC4105438, “Novel Benzoxazine-Based Aglycones Block Glucose Uptake In Vivo by Inhibiting Glycosidases” (PLoS ONE, 2014).

What was measured:
α-Glucosidase = biological target: T1, α-Glucosidase (Saccharomyces cerevisiae, UniProt P53341); test: biochemical; details: 0–100 µM, pre-incubation 10 min 37°C, pH 6.9; NS = not significant
T1 construct: purchased SRL, Mumbai (India)
Method: (§1) Porcine pancreatic α-Amylase and Yeast α-Glucosidase were purchased from SRL, Mumbai (India). Glucose oxidase (GOD POD) kit was purchased from Piramal HealthCare Ltd, Mumbai (India). All other chemicals used were of analytical grade and purchased from Sigma Aldrich, St. Louis (USA) and SRL, Mumbai (India). All IR spectra were obtained in KBr disc on a Shimadzu FT-IR 157 Spectrometer. ^1H and ^13C NMR spectra were recorded on a Bruker WH-200 (400 MZ) spectrometer in CDCl3 or DMSO-d6 as solvent, using TMS as an internal standard and chemical shifts are expressed as ppm. Mass spectra were determined on a Shimadzu LC-MS. The elemental analyses were carried out using an Elemental Vario Cube CHNS rapid Analyzer. The progress of the reaction was monitored by TLC pre-coated silica gel G plates.
The α-glucosidase inhibitory activities of synthesized compounds were evaluated using the method developed by Tsujii et al.. Briefly, α-glucosidase was dissolved in phosphate buffer (50 mM, pH 6.9) and pre-treated with various concentrations of 1,3-benzoxazine derivatives (0–100 µM) independently for 10 min at 37°C. The reaction was initiated by the addition of 50 µL of 5 mM p-nitrophenyl- α -D-glucopyranoside solution in phosphate buffer (50 mM, pH 6.9). The enzyme reaction was carried out at 37°C for 30 min. The reaction was terminated by the addition of Na2CO3 (1 M). The enzymatic activity of α-glucosidase was quantified by measuring the absorption at 405 nm using a Varioskan multimode plate reader (Thermo Scientifics, USA). The inhibitory effect of compounds was defined as inhibitory activity (%) = (Abs Control – Abs Compound treated)/Abs Control ×100. Concentration-response assays were used to determine the potency (IC50) of 1,3-benzoxazine derivatives based on the logistic analysis of the concentration-response curve using Microsoft Excel.

[1] = biological target: T2, Porcine pancreatic α-amylase (Sus scrofa, UniProt P00690); test: α-amylase inhibition assay (starch, DNS reagent); assay type: biochemical; details: 0–100 µM, pre-incubation 10 min 37°C, pH 6.9; NS = not significant
T2 construct: purchased SRL, Mumbai (India)
T2 sequence (P00690 16-511): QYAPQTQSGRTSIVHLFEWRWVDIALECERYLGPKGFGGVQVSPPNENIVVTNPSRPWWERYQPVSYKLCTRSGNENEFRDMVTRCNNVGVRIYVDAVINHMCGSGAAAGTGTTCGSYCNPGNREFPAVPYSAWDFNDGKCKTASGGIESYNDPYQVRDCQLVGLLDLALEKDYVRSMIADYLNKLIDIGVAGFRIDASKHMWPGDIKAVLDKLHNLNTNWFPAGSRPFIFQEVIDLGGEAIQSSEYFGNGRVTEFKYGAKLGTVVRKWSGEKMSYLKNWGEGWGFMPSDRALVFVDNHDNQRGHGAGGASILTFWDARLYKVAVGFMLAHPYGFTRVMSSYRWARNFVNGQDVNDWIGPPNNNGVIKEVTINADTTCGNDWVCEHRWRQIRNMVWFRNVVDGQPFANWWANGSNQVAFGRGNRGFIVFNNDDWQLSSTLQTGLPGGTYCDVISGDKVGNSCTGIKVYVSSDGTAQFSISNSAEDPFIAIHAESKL
Method: as §1, with “All IR spectra were obtained in KBr disc on a Shimadzu FT-IR 157 Spectrometer. ^1H and ^13C NMR spectra were recorded on a Bruker WH-200 (400 MZ) spectrometer in CDCl3 or DMSO-d6 as solvent, using TMS as an internal standard and chemical shifts are expressed as ppm.” left out
The α-amylase inhibition assay was performed according to a previous report. Porcine pancreatic α-amylase (3 units/mL) was dissolved in 0.1 M phosphate buffered saline, pH 6.9. […] The reaction was initiated by adding substrate solution (0.1% starch) to the incubation medium. After 10 min incubation, the reaction was stopped by adding 250 µL dinitrosalicylic (DNS) reagent (1% 3, 5-dinitrosalicylic acid, 0.2% phenol, 0.05% Na2SO3 and 1% NaOH in aqueous solution) to the reaction mixture. The reaction was terminated by keeping the reaction mixture in boiling water bath for 10 min. Thereafter, 250 µL of 40% potassium sodium tartarate solution was added to the mixtures to stabilize the colour. After cooling to room temperature in a cold water bath, the absorbance was recorded at 540 nm using a Varioskan multimode plate reader (Thermo Scientifics, USA). Acrabose was used as positive control. The percentage of inhibition was calculated using Abs Contol – Abs Sample ×100/Abs Control. Where Abs Control was the absorbance without sample, Abs sample was the absorbance of enzyme with compound.

rat intestinal maltase = test: Intestinal α-glucosidase inhibitory assay, maltose as substrate; assay type: biochemical
Method: (§2) Intestinal α-glucosidase activity was determined by measuring the amount of glucose hydrolyzed from maltose or sucrose. Briefly, rat intestinal acetone powder was homogenized in 0.9% saline and the suspension was centrifuged at 10,000 g for 30 min at 4°C and the supernatant obtained was used as enzyme source. […] After the respective incubation period, reaction was terminated by keeping the samples in boiling water bath for 10 min. The concentration of glucose released from the reaction mixtures was determined by using Glucose oxidase (GOD POD) kit according to the manufacturer’s protocol. Results were expressed as percentage inhibition of intestinal maltase/sucrase activity.

rat intestinal sucrase = biological target: T3, rat intestinal sucrase (Rattus norvegicus, UniProt P23739); test: Intestinal α-glucosidase inhibitory assay, sucrose as substrate; assay type: biochemical
T3 construct: the supernatant obtained was used as enzyme source; tissue Sigma Aldrich, St. Louis (USA); host or cells: rat intestinal acetone powder (supernatant of the saline homogenate)
Method: as §2

[2] = test system: overnight fasted Wistar rats; test: Oral maltose tolerance test; assay type: in vivo, rat
Description: (§3) Adult Wistar rats weighing 150–180 g were collected from the University Central Animal Facility and housed under a controlled environment. All animal experiments were approved by the Institutional Animal Ethical Committee (Order No : MGZ/2620/2011-12 Dated 31-01-2012; UOM/IAEC/18/2011), Department of Studies in Zoology, University of Mysore, Mysore and were in accordance with the guidelines of the Committee for the Purpose of Control and Supervision of Experiments on Animals (CPCSEA).
(§4) The experimental animals were randomly divided into 11 groups each consisting of 5 rats. […] Blood was collected from the tail vein to the tubes containing anticoagulant (2.5% trisodium citrate and 1.37% citric acid in the ratio 1∶5; anti-coagulant: blood) at time point 0 (just before sucrose/maltose administration), and subsequently at 30, 60, 90, 120 and 180 min after substrate (sucrose/maltose) administration. Plasma was separated by centrifuging the samples at 2000 rpm for 10 min and stored at −20°C until analysis. Plasma glucose concentration was determined by using the Glucose oxidase (GOD POD) kit according to the manufacturer’s protocol.

[3] = test system: overnight fasted Wistar rats; test: Oral sucrose tolerance test; assay type: in vivo, rat
Description: as §3, §4

porcine diaphragm = test: Glucose uptake study in porcine diaphragm; details: 50 and 100 µM, with and without insulin (1 U), 5 mM glucose
Method: Porcine diaphragm was purchased from a slaughter house, and cleaned using ice cold 0.9% saline several times to remove blood stains. This diaphragm was used for glucose uptake and inhibition by compound 7. Diaphragm (100 mg) was suspended in a 24 well culture plate containing 500 µL saline. In order to initiate the reaction, 5 mM glucose was added to each well. To enhance the glucose uptake by the diaphragm, 1 unit of insulin was used in each well, and the volume was made up to 1 ml with saline. For inhibition studies, compound 7 at a concentration of 50 & 100 µM was used. From each well 100 µL of the assay mixture was aspirated at different time intervals (0, 5, 10, 20, 30 and 60 min). From this, glucose concentration was measured using Glucose oxidase (GOD POD) kit according to the manufacturer’s protocol.

T3 sequence (P23739 whole entry): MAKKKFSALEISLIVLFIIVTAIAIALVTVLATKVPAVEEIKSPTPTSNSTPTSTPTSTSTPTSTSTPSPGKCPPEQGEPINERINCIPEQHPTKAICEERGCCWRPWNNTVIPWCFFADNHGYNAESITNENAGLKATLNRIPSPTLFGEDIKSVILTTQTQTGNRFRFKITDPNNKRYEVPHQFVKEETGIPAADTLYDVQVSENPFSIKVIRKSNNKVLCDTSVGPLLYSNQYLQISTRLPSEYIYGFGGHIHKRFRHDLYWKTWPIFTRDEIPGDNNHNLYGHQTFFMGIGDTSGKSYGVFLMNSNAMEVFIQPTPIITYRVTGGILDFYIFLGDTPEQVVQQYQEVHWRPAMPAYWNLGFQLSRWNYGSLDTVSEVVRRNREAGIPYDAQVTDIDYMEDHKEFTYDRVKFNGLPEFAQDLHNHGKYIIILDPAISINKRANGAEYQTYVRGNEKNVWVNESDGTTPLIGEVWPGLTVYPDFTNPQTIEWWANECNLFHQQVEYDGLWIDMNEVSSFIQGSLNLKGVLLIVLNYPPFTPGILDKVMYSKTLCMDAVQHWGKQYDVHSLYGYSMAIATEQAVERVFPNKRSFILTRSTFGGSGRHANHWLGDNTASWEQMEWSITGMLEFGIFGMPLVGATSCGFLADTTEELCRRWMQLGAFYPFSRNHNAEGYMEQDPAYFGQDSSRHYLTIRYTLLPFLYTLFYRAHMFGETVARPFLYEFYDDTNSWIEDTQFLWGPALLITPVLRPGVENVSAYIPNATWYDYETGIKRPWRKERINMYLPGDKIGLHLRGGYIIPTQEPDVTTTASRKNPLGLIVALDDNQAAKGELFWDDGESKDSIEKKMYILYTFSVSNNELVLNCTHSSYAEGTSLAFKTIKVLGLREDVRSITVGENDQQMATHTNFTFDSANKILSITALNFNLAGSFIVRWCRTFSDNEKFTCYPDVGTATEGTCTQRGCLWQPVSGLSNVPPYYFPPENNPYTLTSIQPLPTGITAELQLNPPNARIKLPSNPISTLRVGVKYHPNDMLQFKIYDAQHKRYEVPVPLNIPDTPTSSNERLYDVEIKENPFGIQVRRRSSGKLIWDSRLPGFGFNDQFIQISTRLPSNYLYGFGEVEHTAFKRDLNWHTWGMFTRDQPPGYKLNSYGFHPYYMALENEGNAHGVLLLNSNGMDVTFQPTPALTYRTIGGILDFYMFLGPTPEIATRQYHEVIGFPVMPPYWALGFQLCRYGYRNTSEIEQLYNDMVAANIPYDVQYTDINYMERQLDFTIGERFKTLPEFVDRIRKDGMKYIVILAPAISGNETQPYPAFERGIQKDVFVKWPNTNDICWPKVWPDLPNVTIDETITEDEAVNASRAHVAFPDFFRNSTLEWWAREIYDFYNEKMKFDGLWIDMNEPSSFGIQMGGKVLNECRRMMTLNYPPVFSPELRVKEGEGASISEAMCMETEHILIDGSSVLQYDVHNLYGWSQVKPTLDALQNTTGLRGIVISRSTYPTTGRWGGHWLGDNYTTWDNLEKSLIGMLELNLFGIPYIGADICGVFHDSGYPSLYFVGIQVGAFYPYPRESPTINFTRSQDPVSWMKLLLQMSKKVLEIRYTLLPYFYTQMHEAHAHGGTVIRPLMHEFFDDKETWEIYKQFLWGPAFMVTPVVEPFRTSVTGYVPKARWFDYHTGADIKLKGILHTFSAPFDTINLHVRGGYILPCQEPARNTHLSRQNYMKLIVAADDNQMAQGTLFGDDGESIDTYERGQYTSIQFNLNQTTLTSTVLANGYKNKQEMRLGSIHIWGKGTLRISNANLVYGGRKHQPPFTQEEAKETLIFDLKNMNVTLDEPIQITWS
T1 sequence (P53341 whole entry): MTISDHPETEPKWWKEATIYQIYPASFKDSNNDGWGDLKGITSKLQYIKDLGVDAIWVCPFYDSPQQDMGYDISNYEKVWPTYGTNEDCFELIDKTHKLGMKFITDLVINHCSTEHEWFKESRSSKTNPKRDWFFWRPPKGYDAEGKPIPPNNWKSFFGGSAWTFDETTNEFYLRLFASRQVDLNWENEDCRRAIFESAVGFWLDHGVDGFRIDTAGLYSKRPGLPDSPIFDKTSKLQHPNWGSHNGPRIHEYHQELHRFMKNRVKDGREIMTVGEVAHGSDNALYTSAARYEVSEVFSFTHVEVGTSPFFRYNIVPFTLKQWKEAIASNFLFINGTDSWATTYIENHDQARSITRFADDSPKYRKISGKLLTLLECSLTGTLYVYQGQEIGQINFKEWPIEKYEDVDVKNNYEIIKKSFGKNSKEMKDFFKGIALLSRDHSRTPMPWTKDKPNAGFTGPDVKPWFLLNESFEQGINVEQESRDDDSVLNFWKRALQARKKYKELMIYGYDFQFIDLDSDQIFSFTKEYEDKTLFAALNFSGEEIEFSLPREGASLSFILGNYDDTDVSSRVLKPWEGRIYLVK

## Oc1ccc(C2Nc3cc(Cl)ccc3CO2)cc1 (stereo not shown) [compound 7, 4-(7-chloro-2,4-dihydro-1H-benzo[d][1,3]oxazin-2-yl)phenol]
α-Glucosidase
  IC50: 11.5 ± 0.1 µM
[1]
  IC50: 11 ± 0.3 µM
Rat intestinal maltase; 5 µM acarbose with compound 7 1–10 µM, compared with intestinal sucrase
  percentage inhibition of intestinal maltase in presence of acarbose: synergistically inhibited intestinal maltase more efficiently compared to intestinal sucrase
Rat intestinal maltase; compound 7 5–25 µM
  percentage inhibition of intestinal maltase: dose-dependent manner
Rat intestinal maltase; rat intestinal acetone powder, maltose 37 mM, 30 min
  IC50: 10 µM
Rat intestinal maltase; ratio of IC50 values, rat intestinal enzymes
  selectivity for maltase over sucrase: two-fold selective for maltase
Rat intestinal sucrase; compound 7 5–25 µM
  percentage inhibition of intestinal sucrase: dose-dependent manner
Rat intestinal sucrase; rat intestinal acetone powder, sucrose 56 mM, 60 min
  IC50: 20 µM
[2]; 50 mg/kg oral, maltose 3 g/kg, 90 min, compared to acarbose
  plasma glucose concentration: significantly reduced plasma glucose concentration at the 90 min time point compared to acarbose
[2]; 100 mg/kg oral, maltose 3 g/kg, compared to acarbose standard
  plasma glucose concentration: significantly more effective than the acarbose standard at all time points
[2]; compound 7 50 mg/kg together with acarbose 3 mg/kg, maltose, up to 180 min, compared to saline group
  plasma glucose concentration: plasma glucose concentration remained unchanged when compared to the saline treated group
[3]; 50 mg/kg oral, sucrose 3 g/kg, 0–180 min, compared to acarbose treated group
  plasma glucose concentration: significantly reduced the plasma glucose concentration throughout all time points
[3]; 100 mg/kg oral, sucrose 3 g/kg, compared to acarbose standard
  plasma glucose concentration: significantly more effective than the acarbose standard at all time points
[3]; compound 7 50 mg/kg together with acarbose 3 mg/kg, sucrose, up to 180 min, compared to saline group
  plasma glucose concentration: plasma glucose concentration remained unchanged when compared to the saline treated group
Porcine diaphragm
  glucose uptake by diaphragm: significantly blocked the glucose uptake both in control and insulin treated diaphragm in a dose-dependent manner
other
  melting point: 139 to 141 °C
